Data reported in patent US9943554B2, “Compositions and methods relating to solenopsins and their uses in treating neurological disorders and enhancing physical performance” (priority 2006, dated 2018).
≈ marks a conversion by molar mass, not a printed value. Like-named read-outs stand apart in the source and are kept apart here.

What was measured:
[1] = biological target: MSK1 (Homo sapiens, UniProt O75582); assay: Initial studies: MSK1; type: biochemical
[2] = test system: Aβ1-42 peptide; assay: Brain and plasma Aβ1-42 peptide levels in guinea pigs after single oral administration; type: in vivo; settings: Guinea Pig, single 10 mg/kg oral
Method: (§1) Animals were dosed once with SPI-001 and then examined at 0, 4, 24, 48 hours and 7 days for AP peptide levels.

[3] = test system: C57BL/6 mice; assay: Selectivity and safety profile in C57BL/6 mice; type: in vivo
Method: Animals (C57BL/6 mice, 5 mice per group) were treated with SPI-001 at 0, 4, 40, and 400 mg/kg in 25% PEG 400 with a single dose and examined 14 days later.

[4] = biological target: T1, muscarinic receptors (M2) (Homo sapiens, UniProt P08172); assay: CEREP screen: muscarinic receptor M2; type: binding; design: dose or concentration left out as unconfirmed
T1 construct: CEREP
T1 sequence (P08172 1-466): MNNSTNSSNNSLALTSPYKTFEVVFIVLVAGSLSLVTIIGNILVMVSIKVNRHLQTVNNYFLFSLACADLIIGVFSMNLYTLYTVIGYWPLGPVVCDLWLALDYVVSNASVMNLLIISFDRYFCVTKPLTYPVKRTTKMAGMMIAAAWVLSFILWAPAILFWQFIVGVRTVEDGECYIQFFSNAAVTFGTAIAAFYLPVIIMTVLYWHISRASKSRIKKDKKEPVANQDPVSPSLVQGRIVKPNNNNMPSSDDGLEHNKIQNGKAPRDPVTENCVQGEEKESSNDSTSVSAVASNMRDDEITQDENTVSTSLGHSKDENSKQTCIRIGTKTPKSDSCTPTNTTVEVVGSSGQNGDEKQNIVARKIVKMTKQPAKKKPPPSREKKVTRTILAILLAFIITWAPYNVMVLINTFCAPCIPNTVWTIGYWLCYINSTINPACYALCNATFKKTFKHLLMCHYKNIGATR
Method: (§2) Recent CEREP screen indicated for SPI-001 ([…]) that it inhibited muscarinic receptors (M1, M2 and M3), Na+ channels and monoamine (NE, DA, and 5-HT) transporters with high affinity (˜90%).

[5] = test system: Aβ1-40 peptide; assay: Brain and plasma Aβ1-40 peptide levels in guinea pigs after single oral administration; type: in vivo; settings: Guinea Pig; single 10 mg/kg oral; compared with Aβ1-42
Method: as §1

[6] = Solubility of SPI-001; type: physicochemical; settings: for solubility: organic solvent or mixture
Method: Based on chemical synthesis of SPI-001 and mass spec analysis, the compound has a molecular weight of <500. It is not a protein or peptide, but is a small molecule. SPI-001 is soluble in dimethyl sulfoxide (DMSO) and ethanol to 100 mg/ml. […] SPI-001 can be resuspended in 25% polyethylene glycol (PEG) 400 for oral delivery.

[7] = test system: Pl3 kinase; assay: Initial studies: Pl3 kinase; type: biochemical
[8] = test system: amyloid load; assay: Amyloid (plaque) load in the brain after repetitive administration for 3 months; type: in vivo; settings: APP transgenic mice; 10 mg/kg orally daily for 3 months; compared to control animals
Text: (§3) The APP mice (male) used in these experiments were designed by microinjection of the human APP gene (with the Swedish and London mutations) into mouse eggs under the control of the platelet-derived growth factor B (PDGF-B) chain gene promoter. The mice were generated on a C57BL/6 background. Animals were housed in the Medical University of South Carolina Animal Facility under a 12:12 light:dark cycle. Animals were housed in standard non-sterile rodent microisolator cages, with filtered cage tops and housed 4 to a cage. Animals were fed ad libitum and maintained by brother sister mating. Transgenic animals were identified by PCR analysis. The mice generated from this construct develop amyloid deposits starting at 3 months of age. Animals were aged for 3 months and then maintained for 90 days and sacrificed for amyloid quantification.
SPI-001 was administered to APP transgenic mice at 10 mg/kg for 3 months to determine the effect upon Aβ peptide and amyloid load. Animals were administered SPI-001 orally in 25% PEG daily and examined for abnormal pathology. […] Animals were analyzed for behavioral changes associated with drug treatment (FIG. 7). […] FIG. 8 illustrates the plaque load in the brains of control and SPI-001 treated animals.

[9] = test system: Aβ1-40 peptide; assay: Brain and plasma Aβ1-40 peptide levels in APP transgenic mice after single oral administration; type: in vivo; settings: single 10 mg/kg oral, compared with Aβ1-42
Text: as §3
FIG. 2 illustrates the effect of SPI-001 on brain Aβ1-42 peptide levels when administered at 10 mg/kg orally to the APP transgenic mice. Animals were dosed once with SPI-001 and then examined at 0, 4, 24 hours and 7 days for A[…] peptide levels (Biosource International). […] The plasma levels were opposite to the brain levels.
Animals were dosed once with SPI-001 and then examined at 0, 4, 24, 48 hours and 7 days for A[…] peptide levels. […] The plasma levels were opposite to the brain levels.

[10] = PK profile in plasma and brain of APP transgenic animals; type: in vivo, APP transgenic mice; settings: orally 10 mg/kg
Method: For PK profile, the APP transgenic animals were administered SPI-001, and blood samples and brain tissue were collected and subjected to drug analysis.

[11] = test system: Na+ channels; assay: CEREP screen: Na+ channels; type: binding; settings: SPI-001 10 mM
Method: as §2

[12] = 400 mg/kg in 25% PEG 400 for 14 days
[13] = C57BL/6 mice, single dose 4, 40 and 400 mg/kg in 25% PEG 400, examined 14 days later

Sequence of MSK1 (O75582 whole entry, species assumed): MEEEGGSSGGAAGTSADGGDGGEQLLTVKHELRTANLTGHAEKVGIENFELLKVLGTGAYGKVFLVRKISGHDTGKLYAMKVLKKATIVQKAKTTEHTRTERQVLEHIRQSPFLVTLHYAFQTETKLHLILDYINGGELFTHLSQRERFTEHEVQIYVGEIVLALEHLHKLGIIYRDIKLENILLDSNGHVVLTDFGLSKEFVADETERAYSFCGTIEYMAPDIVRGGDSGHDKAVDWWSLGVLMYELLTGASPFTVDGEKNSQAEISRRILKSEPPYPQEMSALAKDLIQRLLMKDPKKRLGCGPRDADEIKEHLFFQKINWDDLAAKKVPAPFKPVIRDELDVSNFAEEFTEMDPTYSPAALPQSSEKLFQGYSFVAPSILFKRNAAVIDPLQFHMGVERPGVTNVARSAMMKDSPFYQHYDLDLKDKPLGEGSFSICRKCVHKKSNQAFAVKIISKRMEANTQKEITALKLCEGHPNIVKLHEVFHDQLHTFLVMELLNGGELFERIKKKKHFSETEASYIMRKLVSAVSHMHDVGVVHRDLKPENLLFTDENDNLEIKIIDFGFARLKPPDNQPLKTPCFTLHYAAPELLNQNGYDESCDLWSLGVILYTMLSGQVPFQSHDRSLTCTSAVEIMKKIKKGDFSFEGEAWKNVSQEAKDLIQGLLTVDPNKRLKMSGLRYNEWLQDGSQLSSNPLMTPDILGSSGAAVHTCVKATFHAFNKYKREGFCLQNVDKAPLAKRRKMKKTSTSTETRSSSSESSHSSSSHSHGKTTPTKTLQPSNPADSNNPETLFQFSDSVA

SMILES: CCCCCCCCCCC[C@H]1CCC[C@H](C)N1 (relative stereo) [SPI-001, trans-2-methyl 6-n-undecylpiperidine]
- effect on MSK1 [1]: inhibits
- brain Aβ1-42 peptide levels ([2]; 4 hr): decreased
- plasma Aβ1-42 peptide levels ([2]; 4 hr): increased
- brain Aβ1-42 peptide levels ([2]; 24 hours): continued to decrease
- plasma Aβ1-42 peptide levels ([2]; 24 hours): continued to increase
- brain Aβ1-42 peptide levels ([2]; 48 hours): returned to control levels
- plasma Aβ1-42 peptide levels ([2]; 48 hours): returned to control levels
- brain Aβ1-42 peptide levels ([2]; 7 days): returned to control levels
- plasma Aβ1-42 peptide levels ([2]; 7 days): returned to control levels
- course of body weight changes [3, 12]: stopped by 14 days and reversed
- gross behavioral deficits [3, 12]: no gross behavioral deficits
- histological abnormalities in the tissues examined [3, 12]: no histological abnormalities
- body weight over the 14 days ([3]; 400 mg/kg in 25% PEG 400 for 14 days, 25% PEG animals showed a similar profile): slight decrease in body weight
- gross behavioral deficits upon visual inspection (daily) [3, 13]: no gross behavioral deficits
- histological analysis of tissues (brain, liver, kidney, heart, intestine, lungs) [3, 13]: did not show any abnormal structures
- inhibition [4]: ~90%
- brain Aβ1-40 peptide levels [5]: same levels of decrease in the brain
- plasma Aβ1-40 peptide levels [5]: increase in the plasma
- solubility ([6]; dimethyl sulfoxide (DMSO), read-out: solubility in dimethyl sulfoxide (DMSO)): 100 mg/mL (≈ 395 mM)
- solubility ([6]; ethanol, read-out: solubility in ethanol): 100 mg/mL (≈ 395 mM)
- solubility in water ([6]; water): slightly soluble
- effect on Pl3 kinase [7]: inhibiting
- amyloid load [8]: significantly reduced
- brain Aβ1-40 peptide levels [9]: same levels of decrease in the brain
- plasma Aβ1-40 peptide levels [9]: increase in the plasma
- SPI-001 levels in brain [10]: increased significantly
- SPI-001 levels in plasma [10]: increased significantly
- time SPI-001 levels were maintained in brain [10]: approximately 24 hours
- time SPI-001 levels were maintained in plasma [10]: approximately 24 hours
- inhibition of Na+ channels [11]: ~90%
